Laboratory results from US8809359B2, “Phenyl amino pyrimidine bicyclic compounds and uses thereof” (YM Biosciences Australia Pty Ltd, priority 2012, dated 2014).
Read-outs that look alike come from different tables or passages of the source.

Assays:
Format in all cases: biochemical
TYK2 = TYK2 (Homo sapiens, UniProt P29597); test: Enzyme screening kinase assay, TYK2
Experimental: (§1) Kinase assays were performed based on the method reported by Anastassiadis, T; et al Nature Biotechnology (2011); 29 (11); p 1039-p 1045 (doi:10.1038/nbt.2017).

JAK3 = target: T1, JAK3 (Homo sapiens, UniProt P52333); test: Enzyme screening kinase assay, JAK3
T1 sequence (P52333 1-1124): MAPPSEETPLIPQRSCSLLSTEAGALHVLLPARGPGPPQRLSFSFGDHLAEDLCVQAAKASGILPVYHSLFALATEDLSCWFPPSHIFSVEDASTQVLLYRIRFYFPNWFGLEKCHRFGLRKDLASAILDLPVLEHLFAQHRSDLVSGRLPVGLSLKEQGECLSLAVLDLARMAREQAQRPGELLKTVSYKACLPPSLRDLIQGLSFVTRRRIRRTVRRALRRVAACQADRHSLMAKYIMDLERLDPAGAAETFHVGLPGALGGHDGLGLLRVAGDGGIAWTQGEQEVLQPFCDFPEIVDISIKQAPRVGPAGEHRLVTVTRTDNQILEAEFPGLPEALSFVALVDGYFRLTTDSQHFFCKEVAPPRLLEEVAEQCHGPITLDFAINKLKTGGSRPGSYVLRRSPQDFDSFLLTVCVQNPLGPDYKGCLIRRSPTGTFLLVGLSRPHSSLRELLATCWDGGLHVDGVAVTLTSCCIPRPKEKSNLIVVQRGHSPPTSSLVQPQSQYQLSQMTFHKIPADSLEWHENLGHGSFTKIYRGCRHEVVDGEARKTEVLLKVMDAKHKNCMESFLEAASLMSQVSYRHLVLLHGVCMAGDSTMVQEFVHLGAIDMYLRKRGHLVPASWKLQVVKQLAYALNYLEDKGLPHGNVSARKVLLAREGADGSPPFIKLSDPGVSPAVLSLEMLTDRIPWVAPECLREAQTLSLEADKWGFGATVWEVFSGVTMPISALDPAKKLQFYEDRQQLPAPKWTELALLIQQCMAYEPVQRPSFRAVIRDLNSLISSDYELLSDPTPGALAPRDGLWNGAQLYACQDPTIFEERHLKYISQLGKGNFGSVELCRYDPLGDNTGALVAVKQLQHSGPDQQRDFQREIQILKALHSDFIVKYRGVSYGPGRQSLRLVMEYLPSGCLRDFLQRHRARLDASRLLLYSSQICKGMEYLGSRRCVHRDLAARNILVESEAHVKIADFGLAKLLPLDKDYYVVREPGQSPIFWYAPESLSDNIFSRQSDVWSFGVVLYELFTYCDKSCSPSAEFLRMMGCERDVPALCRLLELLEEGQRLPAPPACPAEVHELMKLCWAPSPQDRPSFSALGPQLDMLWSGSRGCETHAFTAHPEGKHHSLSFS
Experimental: as §1

JAK2 = JAK2 (Homo sapiens, UniProt O60674); test: Enzyme screening kinase assay, JAK2
Experimental: as §1

JAK1 = JAK1 (Homo sapiens, UniProt P23458); test: Enzyme screening kinase assay, JAK1
Experimental: as §1

[1] = Data 1, read-out: TYK2 IC50 Data 1
[2] = Data 2, read-out: TYK2 IC50 Data 2
[3] = Data 1, read-out: JAK3 IC50 Data 1
[4] = Data 2, read-out: JAK3 IC50 Data 2
[5] = Data 1, read-out: JAK2 IC50 Data 1
[6] = Data 2, read-out: JAK2 IC50 Data 2
[7] = Data 1, read-out: JAK1 IC50 Data 1
[8] = Data 2, read-out: JAK1 IC50 Data 2

Chain of TYK2 (P29597 whole entry): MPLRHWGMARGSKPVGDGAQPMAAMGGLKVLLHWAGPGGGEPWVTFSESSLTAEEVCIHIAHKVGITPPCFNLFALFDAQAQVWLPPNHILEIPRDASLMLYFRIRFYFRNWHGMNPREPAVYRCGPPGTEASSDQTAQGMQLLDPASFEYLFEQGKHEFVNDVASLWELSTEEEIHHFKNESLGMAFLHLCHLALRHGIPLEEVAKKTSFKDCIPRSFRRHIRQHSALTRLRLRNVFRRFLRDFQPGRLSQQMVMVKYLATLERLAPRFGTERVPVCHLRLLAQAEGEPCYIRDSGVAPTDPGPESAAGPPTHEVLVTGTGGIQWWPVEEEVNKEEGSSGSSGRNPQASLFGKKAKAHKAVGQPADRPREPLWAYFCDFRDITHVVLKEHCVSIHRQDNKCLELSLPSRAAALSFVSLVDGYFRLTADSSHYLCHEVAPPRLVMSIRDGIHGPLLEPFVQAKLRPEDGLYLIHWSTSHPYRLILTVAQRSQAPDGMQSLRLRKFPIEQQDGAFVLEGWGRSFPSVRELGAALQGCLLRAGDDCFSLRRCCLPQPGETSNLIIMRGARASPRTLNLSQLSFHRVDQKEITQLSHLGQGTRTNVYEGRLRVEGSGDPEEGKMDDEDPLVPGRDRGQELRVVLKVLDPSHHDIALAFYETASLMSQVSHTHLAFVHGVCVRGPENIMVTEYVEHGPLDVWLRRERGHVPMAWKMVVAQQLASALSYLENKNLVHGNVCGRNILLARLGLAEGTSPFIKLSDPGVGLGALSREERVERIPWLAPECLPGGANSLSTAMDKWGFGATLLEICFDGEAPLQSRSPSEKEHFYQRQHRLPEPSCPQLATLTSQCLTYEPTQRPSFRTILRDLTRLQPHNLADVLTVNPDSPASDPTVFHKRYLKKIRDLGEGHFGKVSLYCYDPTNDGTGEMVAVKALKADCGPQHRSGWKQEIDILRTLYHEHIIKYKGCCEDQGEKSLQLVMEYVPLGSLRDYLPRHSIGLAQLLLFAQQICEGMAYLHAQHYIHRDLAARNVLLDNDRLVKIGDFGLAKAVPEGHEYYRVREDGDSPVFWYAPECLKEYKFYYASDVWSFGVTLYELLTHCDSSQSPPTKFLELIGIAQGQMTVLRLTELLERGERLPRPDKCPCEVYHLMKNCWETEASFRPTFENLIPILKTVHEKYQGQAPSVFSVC
Chain of JAK1 (P23458 whole entry): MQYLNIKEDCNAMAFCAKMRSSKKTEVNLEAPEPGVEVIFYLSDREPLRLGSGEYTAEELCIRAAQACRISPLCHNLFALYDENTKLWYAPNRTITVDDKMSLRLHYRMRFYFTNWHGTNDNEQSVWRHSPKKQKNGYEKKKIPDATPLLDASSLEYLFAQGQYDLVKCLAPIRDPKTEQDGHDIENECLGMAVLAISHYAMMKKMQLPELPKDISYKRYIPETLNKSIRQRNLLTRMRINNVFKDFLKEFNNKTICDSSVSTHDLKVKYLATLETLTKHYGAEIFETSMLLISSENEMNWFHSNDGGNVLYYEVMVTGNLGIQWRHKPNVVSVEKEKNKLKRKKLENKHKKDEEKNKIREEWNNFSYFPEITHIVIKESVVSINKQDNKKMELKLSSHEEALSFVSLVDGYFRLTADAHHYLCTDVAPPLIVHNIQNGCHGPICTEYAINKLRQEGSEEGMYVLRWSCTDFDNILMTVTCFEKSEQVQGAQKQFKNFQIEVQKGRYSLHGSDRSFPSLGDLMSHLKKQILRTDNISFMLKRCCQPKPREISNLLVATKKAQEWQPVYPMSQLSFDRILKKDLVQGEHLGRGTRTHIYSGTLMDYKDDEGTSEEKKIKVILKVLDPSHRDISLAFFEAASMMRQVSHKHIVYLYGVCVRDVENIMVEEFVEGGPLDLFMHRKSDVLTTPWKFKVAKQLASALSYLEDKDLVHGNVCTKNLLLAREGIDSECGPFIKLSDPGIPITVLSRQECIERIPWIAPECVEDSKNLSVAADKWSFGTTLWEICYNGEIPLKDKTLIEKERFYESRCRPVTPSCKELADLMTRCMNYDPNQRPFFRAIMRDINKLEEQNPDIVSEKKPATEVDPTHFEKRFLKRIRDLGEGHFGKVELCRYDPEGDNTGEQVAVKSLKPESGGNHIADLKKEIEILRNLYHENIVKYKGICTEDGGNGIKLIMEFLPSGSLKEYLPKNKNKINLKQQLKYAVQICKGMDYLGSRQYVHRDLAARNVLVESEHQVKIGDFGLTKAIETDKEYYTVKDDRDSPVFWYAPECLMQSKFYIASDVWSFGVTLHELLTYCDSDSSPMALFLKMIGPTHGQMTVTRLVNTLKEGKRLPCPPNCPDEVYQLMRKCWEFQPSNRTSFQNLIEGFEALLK
Chain of JAK2 (O60674 whole entry): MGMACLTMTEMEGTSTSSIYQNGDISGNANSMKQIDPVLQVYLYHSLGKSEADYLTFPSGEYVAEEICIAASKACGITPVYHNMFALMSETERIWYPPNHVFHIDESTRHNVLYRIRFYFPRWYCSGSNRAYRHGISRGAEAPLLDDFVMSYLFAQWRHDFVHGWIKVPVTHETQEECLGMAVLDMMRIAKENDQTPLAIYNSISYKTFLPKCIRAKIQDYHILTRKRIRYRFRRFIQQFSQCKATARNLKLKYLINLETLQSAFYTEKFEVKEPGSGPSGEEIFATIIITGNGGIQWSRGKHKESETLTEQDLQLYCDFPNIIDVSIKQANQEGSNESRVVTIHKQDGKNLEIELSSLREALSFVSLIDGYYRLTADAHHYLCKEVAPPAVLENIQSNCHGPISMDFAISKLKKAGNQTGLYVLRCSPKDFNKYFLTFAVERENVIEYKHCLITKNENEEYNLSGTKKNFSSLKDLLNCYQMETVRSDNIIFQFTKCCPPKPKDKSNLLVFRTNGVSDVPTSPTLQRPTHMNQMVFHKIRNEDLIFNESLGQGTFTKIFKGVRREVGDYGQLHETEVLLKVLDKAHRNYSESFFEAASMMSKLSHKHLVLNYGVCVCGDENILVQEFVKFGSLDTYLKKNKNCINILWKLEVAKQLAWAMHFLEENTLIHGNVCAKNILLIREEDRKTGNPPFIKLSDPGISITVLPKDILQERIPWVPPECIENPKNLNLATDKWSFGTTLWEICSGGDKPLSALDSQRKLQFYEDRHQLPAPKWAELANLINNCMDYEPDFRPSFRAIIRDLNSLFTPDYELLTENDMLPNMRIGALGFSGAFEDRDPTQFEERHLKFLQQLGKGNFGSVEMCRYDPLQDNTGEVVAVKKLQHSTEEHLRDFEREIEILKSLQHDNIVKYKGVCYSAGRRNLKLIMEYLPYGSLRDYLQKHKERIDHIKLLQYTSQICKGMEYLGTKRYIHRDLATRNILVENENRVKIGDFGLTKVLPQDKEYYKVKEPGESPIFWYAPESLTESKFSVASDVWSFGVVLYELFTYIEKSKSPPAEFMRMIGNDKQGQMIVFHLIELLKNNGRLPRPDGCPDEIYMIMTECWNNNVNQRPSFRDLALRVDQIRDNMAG

| Compound | IC50 (TYK2; [1]) | IC50 (TYK2; [2]) | IC50 (JAK3; [3]) | IC50 (JAK3; [4]) | IC50 (JAK2; [5]) | IC50 (JAK2; [6]) | IC50 (JAK1; [7]) | IC50 (JAK1; [8]) |
| --- | --- | --- | --- | --- | --- | --- | --- | --- |
| N#CCNC(=O)c1ccc(-c2ccnc(Nc3ccc(N4CC[C@@]5(CCO5)C4)cc3)n2)cc1 [Compound 8, (R)-4-(2-((4-(1-oxa-6-azaspiro[3.4]octan-6-yl)phenyl)amino)pyrimidin-4-yl)-N-(cyanomethyl)benzamide] | 9.98 nM | 9.98 nM | 79.3 nM | 78.5 nM | 43.5 nM | 46.4 nM | 56.9 nM | 35.7 nM |
| N#CCNC(=O)c1ccc(-c2ccnc(Nc3ccc(N4CCC5(CCO5)CC4)cc3)n2)cc1 [Compound 2, 4-(2-((4-(1-oxa-7-azaspiro[3.5]nonan-7-yl)phenyl)amino)pyrimidin-4-yl)-N-(cyanomethyl)benzamide] | 5.09 nM | 5.65 nM | 41.8 nM | 44.8 nM | 22.2 nM | 24.5 nM | 30.6 nM | 37.9 nM |
| N#CCNC(=O)c1ccc(-c2ccnc(Nc3ccc(N4CC5CCC(C4)O5)cc3)n2)cc1 [Compound 4, 4-(2-((4-(8-oxa-3-azabicyclo[3.2.1]octan-3-yl)phenyl)amino)pyrimidin-4-yl)-N-(cyanomethyl)benzamide] | 5.22 nM | 6.17 nM | 92.3 nM | 80.8 nM | 29.3 nM | 29.1 nM | 28.8 nM | 28.6 nM |
| N#CCNC(=O)c1ccc(-c2ccnc(Nc3ccc(N4CC5CC(C4)O5)cc3)n2)cc1 [Compound 3, 4-(2-((4-(6-oxa-3-azabicyclo[3.1.1]heptan-3-yl)phenyl)amino)pyrimidin-4-yl)-N-(cyanomethyl)benzamide] | 6.83 nM | 7.3 nM | 80.1 nM | 82.4 nM | 47 nM | 45 nM | 32.3 nM | 41.7 nM |
| N#CCNC(=O)c1ccc(-c2ccnc(Nc3ccc(N4CCC[C@]5(CCO5)C4)cc3)n2)cc1 [Compound 5, (S)-4-(2-((4-(1-oxa-6-azaspiro[3.5]nonan-6-yl)phenyl)amino)pyrimidin-4-yl)-N-(cyanomethyl)benzamide] | 0.69 nM | 0.91 nM | 60.9 nM | 56.3 nM | 30 nM | 25.9 nM | 10.1 nM | 10.2 nM |
| N#CCNC(=O)c1ccc(-c2ccnc(Nc3ccc(N4C[C@@H]5C[C@H]4CO5)cc3)n2)cc1 [Compound 9, 4-(2-((4-((1S,4S)-2-oxa-5-azabicyclo[2.2.1]heptan-5-yl)phenyl)amino)pyrimidin-4-yl)-N-(cyanomethyl)benzamide] | 8.07 nM | 7.4 nM | 12.8 nM | 14 nM | 11.1 nM | 13.4 nM | 22.4 nM | 21.7 nM |

More lines, in order of falling IC50 (TYK2; [1]), values ahead:

| IC50 (TYK2; [1]) | IC50 (TYK2; [2]) | IC50 (JAK3; [3]) | IC50 (JAK3; [4]) | IC50 (JAK2; [5]) | IC50 (JAK2; [6]) | IC50 (JAK1; [7]) | IC50 (JAK1; [8]) | Compound |
| --- | --- | --- | --- | --- | --- | --- | --- | --- |
| 38 nM | 35 nM | 213 nM | 194 nM | 108 nM | 103 nM | 224 nM | 215 nM | N#CCNC(=O)c1ccc(-c2ccnc(Nc3ccc(N4CC5(CCO5)C4)cc3)n2)cc1 [Compound 1, 4-(2-((4-(1-oxa-6-azaspiro[3.3]heptan-6-yl)phenyl)amino)pyrimidin-4-yl)-N-(cyanomethyl)benzamide] |
| 9.47 nM | 8.54 nM | 33.8 nM | 26.3 nM | 10.6 nM | 10.8 nM | 32.8 nM | 47.4 nM | N#CCNC(=O)c1ccc(-c2ccnc(Nc3ccc(N4CC5(COC5)C4)cc3)n2)cc1 [Compound 11, 4-(2-((4-(2-oxa-6-azaspiro[3.3]heptan-6-yl)phenyl)amino)pyrimidin-4-yl)-N-(cyanomethyl)benzamide] |
| 4.87 nM | 4.29 nM | 60.9 nM | 50.8 nM | 30.3 nM | 34 nM | 31.5 nM | 29.2 nM | N#CCNC(=O)c1ccc(-c2ccnc(Nc3ccc(N4CC[C@]5(CCO5)C4)cc3)n2)cc1 [Compound 7, (S)-4-(2-((4-(1-oxa-6-azaspiro[3.4]octan-6-yl)phenyl)amino)pyrimidin-4-yl)-N-(cyanomethyl)benzamide] |
| 4.31 nM | 2.58 nM | 22.1 nM | 27 nM | 17 nM | 16.8 nM | 16 nM | 15.9 nM | N#CCNC(=O)c1ccc(-c2ccnc(Nc3ccc(N4C[C@H]5C[C@@H]4CO5)cc3)n2)cc1 [Compound 10, 4-(2-((4-((1R,4R)-2-oxa-5-azabicyclo[2.2.1]heptan-5-yl)phenyl)amino)pyrimidin-4-yl)-N-(cyanomethyl)benzamide] |
| 2.94 nM | 2.14 nM | 33.4 nM | 32.7 nM | 14.2 nM | 14.1 nM | 17.5 nM | 19.8 nM | N#CCNC(=O)c1ccc(-c2ccnc(Nc3ccc(N4CCC[C@@]5(CCO5)C4)cc3)n2)cc1 [Compound 6, (R)-4-(2-((4-(1-oxa-6-azaspiro[3.5]nonan-6-yl)phenyl)amino)pyrimidin-4-yl)-N-(cyanomethyl)benzamide] |
